# From US12466800B2, “N-((1,2,3,5,6,7-hexahydro-S-indacen-4-yl)carbamoyl)-4, 5, 6, 7-tetrahydrobenzofuran-2-sulfonamide derivatives and related compounds as NLPR3 modulators for the treatment of multiple sclerosis (MS)” (Zomagen Biosciences Ltd, priority 2019, dated 2025)
# Test system: IL-1b
# Test: Mouse BMDM IL-1b Assay
# Format: cell-based
# Settings: Macrophage; mouse bone marrow derived macrophages (C57BL6); 200 ng/mL LPS 3 h, compound 30 min, 5 mM ATP 45 min; IL-1b ELISA of supernatant
# Description: Example 20: Mouse BMDM IL-1b Assay
# Mouse bone marrow cells from C57BL6 tibia and femur were culture in complete Isocov's Media supplemented with 20 ng/mL MCSF (BMDM media) at a density of 50 million cells/15 cm Petri dish. Fresh media was changed every 3 days, and bone marrow derived macrophages were collected, washed, and counted on day 7. Cells were seeded into 96 well plates at a density of 5×10^4 cells per well in 100 uL of BMDM media and cultured overnight. The cells were stimulated at 37° C. with 200 ng/mL Ultrapure LPS-B5 for 3 hours before pre-diluted compounds were added. 30 minutes after compound addition, 5 mM ATP was added for the secondary stimulation for 45 minutes. After stimulation, the plates were briefly spun down, and 50 uL of supernatant was harvested from each well. ELISA for mouse IL-1b was performed with 1:10 and 1:100 diluted supernatant using pre-coated kits. IL-1b concentrations were calculated based on pre-titrated standards, and compound inhibition IC50 is generated using the Levenberg Marquardt damped lease-square method.
row,IC50 [nM],Structure (SMILES)
1,< 100,"Cc1c(S(=O)(=O)NC(=O)Nc2c3c(cc4c2CCC4)CCC3)oc2c1C(O)CCC2 (stereo not drawn) [Compound 92, N-((1,2,3,5,6,7-hexahydro-s-indacen-4-yl)carbamoyl)-4-hydroxy-3-methyl-4,5,6,7-tetrahydrobenzofuran-2-sulfonamide]"
2,< 100,"CC(C)c1ccc(Cl)c(C(C)C)c1NC(=O)NS(=O)(=O)c1cc2c(o1)CCCC2O (stereo not drawn) [Compound 65, N-((3-chloro-2,6-diisopropylphenyl)carbamoyl)-4-hydroxy-4,5,6,7-tetrahydrobenzofuran-2-sulfonamide]"
3,< 100,"O=C(Nc1c2c(cc3c1CCC3)CCC2)NS(=O)(=O)c1cc2c(o1)CCC/C2=N\O [Compound 35, (E)-N-((1,2,3,5,6,7-hexahydro-s-indacen-4-yl)carbamoyl)-4-(hydroxyimino)-4,5,6,7-tetrahydrobenzofuran-2-sulfonamide]"
4,100 to 1000,"CCOC(=O)CC1(C)CCCc2oc(S(=O)(=O)NC(=O)Nc3c4c(cc5c3CCC5)CCC4)c(C)c21 (stereo not drawn) [Compound 94, ethyl 2-(2-(N-((1,2,3,5,6,7-hexahydro-s-indacen-4-yl)carbamoyl)sulfamoyl)-3,4-dimethyl-4,5,6,7-tetrahydrobenzofuran-4-yl)acetate]"
5,< 100,"Cc1c(S(=O)(=O)NC(=O)Nc2c3c(cc4c2CCC4)CCC3)oc2c1C(C)(O)CCC2 (stereo not drawn) [Compound 93, N-((1,2,3,5,6,7-hexahydro-s-indacen-4-yl)carbamoyl)-4-hydroxy-3,4-dimethyl-4,5,6,7-tetrahydrobenzofuran-2-sulfonamide]"
6,100 to 1000,"CC(C)c1cc(F)cc(C(C)C)c1NC(=O)NS(=O)(=O)c1cc2c(o1)CCC/C2=N\O [Compound 86, (E)-N-((4-fluoro-2,6-diisopropylphenyl)carbamoyl)-4-(hydroxyimino)-4,5,6,7-tetrahydrobenzofuran-2-sulfonamide]"
7,< 100,"CC1(O)CCCc2sc(S(=O)(=O)NC(=O)Nc3c4c(cc5c3CCC5)CCC4)cc21 (stereo not drawn) [Compound 123, N-((1,2,3,5,6,7-hexahydro-s-indacen-4-yl)carbamoyl)-4-hydroxy-4-methyl-4,5,6,7-tetrahydrobenzo[b]thiophene-2-sulfonamide]"
8,100 to 1000,"CC1(C)CC(=O)c2cc(S(=O)(=O)NC(=O)Nc3c4c(cc5c3CCC5)CCC4)oc2C1 [Compound 21, N-((1,2,3,5,6,7-hexahydro-s-indacen-4-yl)carbamoyl)-6,6-dimethyl-4-oxo-4,5,6,7-tetrahydrobenzofuran-2-sulfonamide]"
9,< 100,"CC1(O)CCCCc2oc(S(=O)(=O)NC(=O)Nc3c4c(cc5c3CCC5)CCC4)cc21 (stereo not drawn) [Compound 24, N-((1,2,3,5,6,7-hexahydro-s-indacen-4-yl)carbamoyl)-4-hydroxy-4-methyl-5,6,7,8-tetrahydro-4H-cyclohepta[b]furan-2-sulfonamide]"
10,< 100,"O=C(Nc1c2c(c(Cl)c3c1CCC3)CCC2)NS(=O)(=O)c1cc2c(o1)CCC/C2=N/O [Compound 83, (Z)-N-((8-chloro-1,2,3,5,6,7-hexahydro-s-indacen-4-yl)carbamoyl)-4-(hydroxyimino)-4,5,6,7-tetrahydrobenzofuran-2-sulfonamide]"
11,1000 to 10000,"CC(C)c1cc(Cl)cc(C(C)C)c1NC(=O)NS(=O)(=O)c1cc2c(o1)CCC/C2=N\O [Compound 78, (E)-N-((4-chloro-2,6-diisopropylphenyl)carbamoyl)-4-(hydroxyimino)-4,5,6,7-tetrahydrobenzofuran-2-sulfonamide]"
12,100 to 1000,"CC(C)c1c(F)c(Cl)c(F)c(C(C)C)c1NC(=O)NS(=O)(=O)c1cc2c(o1)CCC/C2=N\O [Compound 101, (E)-N-((4-chloro-3,5-difluoro-2,6-diisopropylphenyl)carbamoyl)-4-(hydroxyimino)-4,5,6,7-tetrahydrobenzofuran-2-sulfonamide]"
13,100 to 1000,"CC(C)c1cc(F)cc(C(C)C)c1NC(=O)NS(=O)(=O)c1cc2c(o1)CCCCC2(C)O (stereo not drawn) [Compound 121, N-((4-fluoro-2,6-diisopropylphenyl)carbamoyl)-4-hydroxy-4-methyl-5,6,7,8-tetrahydro-4H-cyclohepta[b]furan-2-sulfonamide]"
14,< 100,"CC1(O)CCCCc2oc(S(=O)(=O)NC(=O)Nc3c4c(c(Br)c5c3CCC5)CCC4)cc21 (stereo not drawn) [Compound 108, N-((8-bromo-1,2,3,5,6,7-hexahydro-s-indacen-4-yl)carbamoyl)-4-hydroxy-4-methyl-5,6,7,8-tetrahydro-4H-cyclohepta[b]furan-2-sulfonamide]"
15,< 100,"O=C(Nc1c2c(cc3c1CCC3)CCC2)NS(=O)(=O)c1cc2c(o1)CCCCC2O (stereo not drawn) [Compound 25, N-((1,2,3,5,6,7-hexahydro-s-indacen-4-yl)carbamoyl)-4-hydroxy-5,6,7,8-tetrahydro-4H-cyclohepta[b]furan-2-sulfonamide]"
16,100 to 1000,"CN1CCc2sc(S(=O)(=O)NC(=O)Nc3c4c(cc5c3CCC5)CCC4)cc2C1=O [Compound 114, N-((1,2,3,5,6,7-hexahydro-s-indacen-4-yl)carbamoyl)-5-methyl-4-oxo-4,5,6,7-tetrahydrothieno[3,2-c]pyridine-2-sulfonamide]"
17,100 to 1000,"CC(C)c1ccc(F)c(C(C)C)c1NC(=O)NS(=O)(=O)c1cc2c(o1)CCCCC2O (stereo not drawn) [Compound 119, N-((3-fluoro-2,6-diisopropylphenyl)carbamoyl)-4-hydroxy-5,6,7,8-tetrahydro-4H-cyclohepta[b]furan-2-sulfonamide]"
18,< 100,"CC1(O)CCCc2oc(S(=O)(=O)NC(=O)Nc3c4c(c(Br)c5c3CCC5)CCC4)cc21 (stereo not drawn) [Compound 40, N-((8-bromo-1,2,3,5,6,7-hexahydro-s-indacen-4-yl)carbamoyl)-4-hydroxy-4-methyl-4,5,6,7-tetrahydrobenzofuran-2-sulfonamide]"
19,1000 to 10000,"CC(C)c1cccc(C(C)C)c1CC(=O)NS(=O)(=O)c1cc2c(o1)CCC(C)(C)C2=O [Compound 76, 2-(2,6-diisopropylphenyl)-N-((5,5-dimethyl-4-oxo-4,5,6,7-tetrahydrobenzofuran-2-yl)sulfonyl)acetamide]"
20,100 to 1000,"CC(C)c1cccc(C(C)C)c1NC(=O)NS(=O)(=O)c1cc2c(o1)CCCC2O (stereo not drawn) [Compound 59, N-((2,6-diisopropylphenyl)carbamoyl)-4-hydroxy-4,5,6,7-tetrahydrobenzofuran-2-sulfonamide]"
21,< 100,"CC1(O)CCCCc2oc(S(=O)(=O)NC(=O)Nc3c4c(c(Cl)c5c3CCC5)CCC4)cc21 (stereo not drawn) [Compound 107, N-((8-chloro-1,2,3,5,6,7-hexahydro-s-indacen-4-yl)carbamoyl)-4-hydroxy-4-methyl-5,6,7,8-tetrahydro-4H-cyclohepta[b]furan-2-sulfonamide]"
22,100 to 1000,"CO/N=C1/CCCc2oc(S(=O)(=O)NC(=O)Nc3c4c(cc5c3CCC5)CCC4)cc21 [Compound 41, (Z)-N-((1,2,3,5,6,7-hexahydro-s-indacen-4-yl)carbamoyl)-4-(methoxyimino)-4,5,6,7-tetrahydrobenzofuran-2-sulfonamide]"
23,< 100,"O=C(Nc1c2c(c(Br)c3c1CCC3)CCC2)NS(=O)(=O)c1cc2c(o1)CCCCC2O (stereo not drawn) [Compound 118, N-((8-bromo-1,2,3,5,6,7-hexahydro-s-indacen-4-yl)carbamoyl)-4-hydroxy-5,6,7,8-tetrahydro-4H-cyclohepta[b]furan-2-sulfonamide]"
24,< 100,"CC1(O)CCCCc2oc(S(=O)(=O)NC(=O)Nc3c4c(c(F)c5c3CCC5)CCC4)cc21 (stereo not drawn) [Compound 106, N-((8-fluoro-1,2,3,5,6,7-hexahydro-s-indacen-4-yl)carbamoyl)-4-hydroxy-4-methyl-5,6,7,8-tetrahydro-4H-cyclohepta[b]furan-2-sulfonamide]"
25,100 to 1000,"CC(C)c1ccc(Cl)c(C(C)C)c1NC(=O)NS(=O)(=O)c1cc2c(o1)CCCCC2O (stereo not drawn) [Compound 120, N-((3-chloro-2,6-diisopropylphenyl)carbamoyl)-4-hydroxy-5,6,7,8-tetrahydro-4H-cyclohepta[b]furan-2-sulfonamide]"
26,< 100,"CC(C)c1ccc(F)c(C(C)C)c1NC(=O)NS(=O)(=O)c1cc2c(o1)CCCC2(C)O (stereo not drawn) [Compound 68, N-((3-fluoro-2,6-diisopropylphenyl)carbamoyl)-4-hydroxy-4-methyl-4,5,6,7-tetrahydrobenzofuran-2-sulfonamide]"
27,1000 to 10000,"O=C(O)CC1(O)CCCc2oc(S(=O)(=O)NC(=O)Nc3c4c(cc5c3CCC5)CCC4)cc21 (stereo not drawn) [Compound 104, 2-(2-(N-((1,2,3,5,6,7-hexahydro-s-indacen-4-yl)carbamoyl)sulfamoyl)-4-hydroxy-4,5,6,7-tetrahydrobenzofuran-4-yl)acetic acid]"
28,< 100,"O=C(Nc1c2c(cc3c1CCC3)CCC2)NS(=O)(=O)c1cc2c(s1)CCC/C2=N/O [Compound 125, (Z)-N-((1,2,3,5,6,7-hexahydro-s-indacen-4-yl)carbamoyl)-4-(hydroxyimino)-4,5,6,7-tetrahydrobenzo[b]thiophene-2-sulfonamide]"
29,< 100,"O=C(Nc1c2c(cc3c1CCC3)CCC2)NS(=O)(=O)c1cc2c(o1)CCCC2O (stereo not drawn) [Compound 8, N-((1,2,3,5,6,7-hexahydro-s-indacen-4-yl)carbamoyl)-4-hydroxy-4,5,6,7-tetrahydrobenzofuran-2-sulfonamide]"
30,100 to 1000,"CC(C)c1c(F)c(Cl)c(F)c(C(C)C)c1NC(=O)NS(=O)(=O)c1cc2c(o1)CCCC2O (stereo not drawn) [Compound 102, N-((4-chloro-3,5-difluoro-2,6-diisopropylphenyl)carbamoyl)-4-hydroxy-4,5,6,7-tetrahydrobenzofuran-2-sulfonamide]"
